Measured values published in US20150133369A1, “PHARMACOKINETIC MODULATION WITH ALISPORIVIR” (priority 2012, published 2015).
Read-outs that look alike come from different tables or passages of the source. One block for each molecule: values may come before it.

What was measured:
[1] = clinical drug-drug interaction study: effect of alisporivir on telaprevir (CYP3A4 and P-gp substrate) pharmacokinetics; assay type: in vivo; details: healthy human subjects; alisporivir 600 mg BID for 7 day and 600 mg QD for one additional day; single 375 mg oral dose of telaprevir
Method: The T1/2 of telaprevir was longer when telaprevir was administered with alisporivir.

[2] = clinical drug-drug interaction study: effect of alisporivir on azithromycin (CYP3A4 substrate) pharmacokinetics; assay type: in vivo, human; details: single 1200 mg oral dose of alisporivir; single oral 1000 mg dose of azithromycin
[3] = clinical drug-drug interaction study: effect of alisporivir on buspirone (sensitive CYP3A4 substrate) pharmacokinetics; details: alisporivir 600 mg BID for 7 days; single oral 5 mg dose of buspirone
[4] = effect of alisporivir on circulating bilirubin concentrations in healthy subjects; details: 40 mg valsartan before and after alisporivir 600 mg BID 7 days then QD
[5] = clinical drug-drug interaction study: effect of alisporivir on valsartan (CYP2C9, OATP1B1, OATP1B3, MRP2 substrate) pharmacokinetics; details: alisporivir 600 mg BID for 7 days; single oral 40 mg dose of valsartan
[6] = alisporivir 600 mg BID for 10 days; single 40 mg oral dose of atorvastatin
[7] = clinical drug-drug interaction study: effect of alisporivir on digoxin (P-gp substrate) pharmacokinetics; assay type: in vivo, human; details: alisporivir 600 mg BID for 7 days; single oral 0.25 mg dose of digoxin
Method: Digoxin 0.25 mg is generally initiated in patients under the age of 70 with good renal function. When digoxin is taken with food high in bran fiber, the amount absorbed from an oral dose may be reduced.

[8] = human, in vivo, po
[9] = human, in vivo, po; remark: listed apart in the source
CYP3A4 = CYP3A4 (Homo sapiens, UniProt P08684)
Chain of CYP3A4 (P08684 whole entry): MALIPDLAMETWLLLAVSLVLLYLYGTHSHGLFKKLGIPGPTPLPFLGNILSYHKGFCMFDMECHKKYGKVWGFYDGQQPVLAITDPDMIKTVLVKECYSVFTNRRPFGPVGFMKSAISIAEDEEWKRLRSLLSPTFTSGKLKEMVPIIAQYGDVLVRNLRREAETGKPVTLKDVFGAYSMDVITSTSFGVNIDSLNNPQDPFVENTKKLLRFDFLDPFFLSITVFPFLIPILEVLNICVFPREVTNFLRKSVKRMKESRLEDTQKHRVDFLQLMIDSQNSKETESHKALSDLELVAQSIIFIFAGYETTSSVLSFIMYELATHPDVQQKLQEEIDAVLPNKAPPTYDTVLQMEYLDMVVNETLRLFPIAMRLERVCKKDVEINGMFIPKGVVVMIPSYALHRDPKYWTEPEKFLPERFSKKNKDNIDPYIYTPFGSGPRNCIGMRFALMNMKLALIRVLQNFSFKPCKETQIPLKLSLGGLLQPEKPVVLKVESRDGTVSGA

UGT2B7 = biological target: T1, UGT2B7 (Homo sapiens, UniProt P16662)
T1 sequence (P16662 24-529): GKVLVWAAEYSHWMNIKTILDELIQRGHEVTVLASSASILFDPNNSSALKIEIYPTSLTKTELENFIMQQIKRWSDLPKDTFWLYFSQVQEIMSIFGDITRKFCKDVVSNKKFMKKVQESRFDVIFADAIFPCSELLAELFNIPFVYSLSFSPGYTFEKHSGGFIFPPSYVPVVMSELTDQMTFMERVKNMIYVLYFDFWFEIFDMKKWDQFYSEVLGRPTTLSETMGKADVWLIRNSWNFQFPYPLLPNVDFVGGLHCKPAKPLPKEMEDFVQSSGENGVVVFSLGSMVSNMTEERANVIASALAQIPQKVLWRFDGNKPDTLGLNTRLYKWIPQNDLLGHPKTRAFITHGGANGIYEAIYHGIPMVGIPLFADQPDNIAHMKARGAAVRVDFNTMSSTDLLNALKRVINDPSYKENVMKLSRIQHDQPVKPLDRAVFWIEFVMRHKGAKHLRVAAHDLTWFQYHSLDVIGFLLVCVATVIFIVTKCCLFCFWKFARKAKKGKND

[10] = human, in vivo, po; remark: listed apart in the source
NTCP = biological target: T2, NTCP (Homo sapiens, UniProt Q14973)
T2 sequence (Q14973 1-349): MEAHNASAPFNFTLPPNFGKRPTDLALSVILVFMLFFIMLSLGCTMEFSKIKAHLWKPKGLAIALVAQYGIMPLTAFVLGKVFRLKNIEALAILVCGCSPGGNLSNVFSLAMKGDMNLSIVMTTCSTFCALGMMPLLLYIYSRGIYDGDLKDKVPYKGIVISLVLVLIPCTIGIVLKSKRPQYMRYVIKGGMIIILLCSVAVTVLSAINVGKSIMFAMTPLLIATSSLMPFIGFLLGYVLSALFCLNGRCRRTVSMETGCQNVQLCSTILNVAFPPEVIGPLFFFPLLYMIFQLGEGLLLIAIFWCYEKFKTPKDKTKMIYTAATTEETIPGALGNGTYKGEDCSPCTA

[11] = human, in vivo, po; remark: listed apart in the source
P-gp = P-gp (Homo sapiens, UniProt P08183); details: not told
Chain of P-gp (P08183 whole entry): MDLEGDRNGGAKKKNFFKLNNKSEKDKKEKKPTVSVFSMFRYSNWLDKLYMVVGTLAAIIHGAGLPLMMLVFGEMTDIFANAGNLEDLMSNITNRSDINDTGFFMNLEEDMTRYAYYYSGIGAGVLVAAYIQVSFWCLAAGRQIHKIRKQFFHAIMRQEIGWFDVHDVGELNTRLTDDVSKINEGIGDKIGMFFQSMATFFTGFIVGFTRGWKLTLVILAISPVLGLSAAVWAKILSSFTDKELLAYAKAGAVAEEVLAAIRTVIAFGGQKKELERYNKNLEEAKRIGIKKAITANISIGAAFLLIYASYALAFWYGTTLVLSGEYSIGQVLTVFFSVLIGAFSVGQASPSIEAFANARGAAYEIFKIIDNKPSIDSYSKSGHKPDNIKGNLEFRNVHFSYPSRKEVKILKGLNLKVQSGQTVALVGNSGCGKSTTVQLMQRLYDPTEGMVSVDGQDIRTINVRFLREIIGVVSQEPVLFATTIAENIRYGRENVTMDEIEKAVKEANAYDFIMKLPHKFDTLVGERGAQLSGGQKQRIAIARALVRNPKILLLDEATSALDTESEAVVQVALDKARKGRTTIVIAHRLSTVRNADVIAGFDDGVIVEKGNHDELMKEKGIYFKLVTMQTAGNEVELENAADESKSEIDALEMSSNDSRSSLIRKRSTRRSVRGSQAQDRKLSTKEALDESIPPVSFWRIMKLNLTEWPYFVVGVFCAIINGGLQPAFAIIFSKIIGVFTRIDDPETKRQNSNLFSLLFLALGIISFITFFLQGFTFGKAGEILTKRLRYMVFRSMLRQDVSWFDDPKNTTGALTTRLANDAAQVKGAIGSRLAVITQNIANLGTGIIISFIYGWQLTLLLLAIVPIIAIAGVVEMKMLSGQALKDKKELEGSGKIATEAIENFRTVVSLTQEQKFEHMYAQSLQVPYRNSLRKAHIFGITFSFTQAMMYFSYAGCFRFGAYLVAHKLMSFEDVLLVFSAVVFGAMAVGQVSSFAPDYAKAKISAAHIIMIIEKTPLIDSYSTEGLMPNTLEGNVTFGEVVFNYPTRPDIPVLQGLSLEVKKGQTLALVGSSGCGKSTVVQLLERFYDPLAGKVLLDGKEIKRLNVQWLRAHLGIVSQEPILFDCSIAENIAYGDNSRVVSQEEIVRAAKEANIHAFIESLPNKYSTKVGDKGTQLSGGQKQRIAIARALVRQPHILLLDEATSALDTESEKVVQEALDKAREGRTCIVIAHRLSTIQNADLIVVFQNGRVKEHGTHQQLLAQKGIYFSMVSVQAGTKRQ

OATP1B3 [12] = biological target: T3, OATP1B3 (Homo sapiens, UniProt Q9NPD5)
T3 sequence (Q9NPD5 1-702): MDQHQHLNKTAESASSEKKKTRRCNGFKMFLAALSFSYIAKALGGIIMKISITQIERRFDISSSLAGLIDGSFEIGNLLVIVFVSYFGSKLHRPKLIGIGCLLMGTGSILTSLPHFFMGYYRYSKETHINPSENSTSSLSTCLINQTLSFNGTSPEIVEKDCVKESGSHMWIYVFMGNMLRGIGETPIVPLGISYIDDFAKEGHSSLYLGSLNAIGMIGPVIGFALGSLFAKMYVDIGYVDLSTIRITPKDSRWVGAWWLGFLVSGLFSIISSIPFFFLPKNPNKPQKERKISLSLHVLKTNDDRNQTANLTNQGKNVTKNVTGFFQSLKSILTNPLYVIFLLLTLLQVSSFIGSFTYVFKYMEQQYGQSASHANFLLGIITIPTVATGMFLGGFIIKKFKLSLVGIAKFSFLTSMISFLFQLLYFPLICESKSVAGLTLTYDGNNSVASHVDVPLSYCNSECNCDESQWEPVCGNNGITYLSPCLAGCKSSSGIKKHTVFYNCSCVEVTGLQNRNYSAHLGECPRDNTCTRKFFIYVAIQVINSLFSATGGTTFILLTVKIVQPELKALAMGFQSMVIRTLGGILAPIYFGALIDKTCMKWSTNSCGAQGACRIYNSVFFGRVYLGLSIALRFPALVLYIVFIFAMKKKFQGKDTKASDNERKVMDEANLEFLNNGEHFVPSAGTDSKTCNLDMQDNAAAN

HIV-1 = details: in vitro; more potent than CsA; cited from earlier work
MRP2 [13] = biological target: T4, MRP2 (Homo sapiens, UniProt Q92887)
T4 sequence (Q92887 whole entry): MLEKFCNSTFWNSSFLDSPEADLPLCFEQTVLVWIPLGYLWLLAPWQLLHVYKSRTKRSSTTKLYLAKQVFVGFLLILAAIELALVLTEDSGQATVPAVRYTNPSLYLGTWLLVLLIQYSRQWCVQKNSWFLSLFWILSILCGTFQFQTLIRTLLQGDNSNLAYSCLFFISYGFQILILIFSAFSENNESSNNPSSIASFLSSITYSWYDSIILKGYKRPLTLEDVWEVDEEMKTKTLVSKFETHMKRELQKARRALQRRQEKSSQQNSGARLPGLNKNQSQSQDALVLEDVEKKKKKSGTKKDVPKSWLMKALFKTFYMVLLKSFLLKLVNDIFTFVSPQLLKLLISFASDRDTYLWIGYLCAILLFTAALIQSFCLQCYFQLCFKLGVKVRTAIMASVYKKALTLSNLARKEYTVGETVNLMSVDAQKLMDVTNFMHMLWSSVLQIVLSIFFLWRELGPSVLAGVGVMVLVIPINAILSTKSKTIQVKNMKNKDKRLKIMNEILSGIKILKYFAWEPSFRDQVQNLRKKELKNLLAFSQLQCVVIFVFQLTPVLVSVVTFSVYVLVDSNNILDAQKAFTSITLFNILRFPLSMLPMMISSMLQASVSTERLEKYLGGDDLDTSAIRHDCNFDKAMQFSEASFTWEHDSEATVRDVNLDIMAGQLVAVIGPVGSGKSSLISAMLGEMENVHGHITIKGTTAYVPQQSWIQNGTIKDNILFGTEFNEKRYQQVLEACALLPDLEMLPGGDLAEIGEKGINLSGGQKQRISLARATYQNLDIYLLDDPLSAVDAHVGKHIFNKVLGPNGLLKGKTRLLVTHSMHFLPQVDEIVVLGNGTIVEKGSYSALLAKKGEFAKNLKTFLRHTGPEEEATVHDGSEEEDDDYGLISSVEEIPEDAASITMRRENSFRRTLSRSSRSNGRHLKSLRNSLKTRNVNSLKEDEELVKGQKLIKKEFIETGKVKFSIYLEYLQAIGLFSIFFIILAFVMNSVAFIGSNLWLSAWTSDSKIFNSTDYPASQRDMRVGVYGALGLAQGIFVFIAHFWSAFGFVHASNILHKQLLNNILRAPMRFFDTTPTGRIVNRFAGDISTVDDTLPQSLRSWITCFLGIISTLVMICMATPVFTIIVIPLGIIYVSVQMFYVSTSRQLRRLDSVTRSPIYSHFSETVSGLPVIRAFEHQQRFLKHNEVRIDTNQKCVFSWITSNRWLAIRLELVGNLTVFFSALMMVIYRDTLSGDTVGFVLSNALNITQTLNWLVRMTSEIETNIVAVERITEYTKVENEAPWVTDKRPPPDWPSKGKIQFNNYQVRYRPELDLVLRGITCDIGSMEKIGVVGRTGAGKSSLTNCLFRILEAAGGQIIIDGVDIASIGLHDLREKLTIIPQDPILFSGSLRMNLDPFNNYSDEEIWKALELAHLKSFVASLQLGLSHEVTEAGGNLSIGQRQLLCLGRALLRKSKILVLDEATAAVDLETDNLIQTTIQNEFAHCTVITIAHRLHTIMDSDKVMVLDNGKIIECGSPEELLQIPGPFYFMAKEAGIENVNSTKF

OATP1B3 [14] = biological target: T3, OATP1B3; remark: listed apart in the source
OATP1B1 [15] = biological target: T5, OATP1B1 (Homo sapiens, UniProt Q9Y6L6)
T5 sequence (Q9Y6L6 1-691): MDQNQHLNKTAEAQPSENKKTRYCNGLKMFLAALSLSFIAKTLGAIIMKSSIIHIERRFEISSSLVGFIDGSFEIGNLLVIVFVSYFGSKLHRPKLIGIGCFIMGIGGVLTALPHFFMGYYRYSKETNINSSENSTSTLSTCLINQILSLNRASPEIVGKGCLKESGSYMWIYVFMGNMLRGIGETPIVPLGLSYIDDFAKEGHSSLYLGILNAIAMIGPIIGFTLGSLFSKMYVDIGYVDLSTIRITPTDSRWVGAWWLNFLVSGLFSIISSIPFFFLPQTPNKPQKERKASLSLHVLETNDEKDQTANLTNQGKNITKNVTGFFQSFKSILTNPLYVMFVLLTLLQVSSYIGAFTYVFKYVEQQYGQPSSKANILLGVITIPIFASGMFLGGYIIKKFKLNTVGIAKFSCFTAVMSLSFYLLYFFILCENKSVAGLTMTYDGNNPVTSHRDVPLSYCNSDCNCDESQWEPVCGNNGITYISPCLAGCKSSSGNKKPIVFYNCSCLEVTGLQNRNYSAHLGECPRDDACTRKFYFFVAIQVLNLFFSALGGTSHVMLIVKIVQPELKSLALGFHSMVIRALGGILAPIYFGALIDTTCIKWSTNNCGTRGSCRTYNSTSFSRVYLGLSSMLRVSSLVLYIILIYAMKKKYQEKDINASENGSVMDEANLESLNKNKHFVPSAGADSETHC

MRP2 [16] = biological target: T4, MRP2; details: not told
BSEP = BSEP (Homo sapiens, UniProt O95342)
Chain of BSEP (O95342 whole entry): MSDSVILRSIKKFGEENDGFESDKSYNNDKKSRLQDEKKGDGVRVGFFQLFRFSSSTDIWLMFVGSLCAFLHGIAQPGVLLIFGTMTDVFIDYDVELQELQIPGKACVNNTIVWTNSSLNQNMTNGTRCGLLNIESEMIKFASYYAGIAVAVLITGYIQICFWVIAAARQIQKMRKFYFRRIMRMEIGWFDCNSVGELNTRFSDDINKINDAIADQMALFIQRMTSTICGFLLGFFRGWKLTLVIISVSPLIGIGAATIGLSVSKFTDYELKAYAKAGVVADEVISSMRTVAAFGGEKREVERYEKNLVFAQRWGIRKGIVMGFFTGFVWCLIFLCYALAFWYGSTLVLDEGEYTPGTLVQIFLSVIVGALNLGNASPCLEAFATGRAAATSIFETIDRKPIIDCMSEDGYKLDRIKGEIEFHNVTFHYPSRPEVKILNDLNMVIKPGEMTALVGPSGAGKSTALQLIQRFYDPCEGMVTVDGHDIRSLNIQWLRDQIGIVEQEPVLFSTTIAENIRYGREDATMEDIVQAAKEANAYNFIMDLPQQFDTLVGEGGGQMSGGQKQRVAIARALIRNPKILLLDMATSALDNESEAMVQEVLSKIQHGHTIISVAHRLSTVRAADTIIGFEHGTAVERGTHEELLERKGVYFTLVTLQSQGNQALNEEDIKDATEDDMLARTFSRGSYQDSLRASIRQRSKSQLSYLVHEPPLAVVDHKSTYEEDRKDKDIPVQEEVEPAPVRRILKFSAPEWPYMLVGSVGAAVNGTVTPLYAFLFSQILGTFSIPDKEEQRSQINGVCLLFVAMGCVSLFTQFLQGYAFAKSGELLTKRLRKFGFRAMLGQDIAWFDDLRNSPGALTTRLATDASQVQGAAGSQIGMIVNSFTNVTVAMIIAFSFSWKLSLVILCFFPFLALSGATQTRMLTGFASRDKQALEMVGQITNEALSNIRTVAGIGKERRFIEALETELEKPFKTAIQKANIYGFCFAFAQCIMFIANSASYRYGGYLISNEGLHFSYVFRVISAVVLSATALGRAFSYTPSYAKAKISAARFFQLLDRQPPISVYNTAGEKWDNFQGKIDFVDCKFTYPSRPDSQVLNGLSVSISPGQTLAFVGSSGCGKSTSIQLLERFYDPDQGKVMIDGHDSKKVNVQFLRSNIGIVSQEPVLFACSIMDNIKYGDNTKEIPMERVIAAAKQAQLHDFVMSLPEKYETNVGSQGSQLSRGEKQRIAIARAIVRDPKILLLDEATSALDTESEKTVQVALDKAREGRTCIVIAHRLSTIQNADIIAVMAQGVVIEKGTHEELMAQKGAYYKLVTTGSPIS

UGT1A1 = biological target: T6, UGT1A1 (Homo sapiens, UniProt P22309)
T6 sequence (P22309 26-533): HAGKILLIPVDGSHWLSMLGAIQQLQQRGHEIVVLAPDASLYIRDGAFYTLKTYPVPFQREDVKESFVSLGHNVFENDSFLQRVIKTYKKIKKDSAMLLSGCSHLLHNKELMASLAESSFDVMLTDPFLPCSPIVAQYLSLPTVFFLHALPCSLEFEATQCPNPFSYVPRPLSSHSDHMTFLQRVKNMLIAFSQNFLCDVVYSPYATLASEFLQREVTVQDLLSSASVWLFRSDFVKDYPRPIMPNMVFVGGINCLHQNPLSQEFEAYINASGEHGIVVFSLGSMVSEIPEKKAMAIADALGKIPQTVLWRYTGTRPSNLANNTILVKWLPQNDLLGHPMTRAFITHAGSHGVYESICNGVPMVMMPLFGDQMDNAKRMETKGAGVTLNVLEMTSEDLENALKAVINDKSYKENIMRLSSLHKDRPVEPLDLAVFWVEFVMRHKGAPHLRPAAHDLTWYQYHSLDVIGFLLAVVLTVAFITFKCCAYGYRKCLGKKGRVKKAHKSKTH

OATP1B1 [17] = biological target: T5, OATP1B1; remark: listed apart in the source
[18] = clinical drug-drug interaction study: effect of alisporivir on boceprevir (CYP3A4 and P-gp substrate) pharmacokinetics; assay type: in vivo; details: healthy human subjects; alisporivir 600 mg BID for 7 days and 600 mg QD for one additional day; single 400 mg oral dose of boceprevir
Method: The T1/2 of boceprevir was similar when boceprevir was administered with alisporivir.

SMILES: CCC[C@H](NC(=O)[C@@H]1[C@H]2CCC[C@H]2CN1C(=O)[C@@H](NC(=O)[C@@H](NC(=O)c1cnccn1)C1CCCCC1)C(C)(C)C)C(=O)C(=O)NC1CC1 [telaprevir]
- T1/2 when administered with alisporivir [1]: longer
- increase in the Cmax [1]: ~2.4 fold

SMILES: CC[C@H]1OC(=O)[C@H](C)[C@@H](O[C@H]2C[C@@](C)(OC)[C@@H](O)[C@H](C)O2)[C@H](C)[C@@H](O[C@@H]2O[C@H](C)C[C@H](N(C)C)[C@H]2O)[C@](C)(O)C[C@@H](C)CN(C)[C@H](C)[C@@H](O)[C@]1(C)O [azithromycin]
- increase in the AUC [2]: 32-39%

SMILES: c1cnc(N2CCNCC2)nc1 [1-PP]
- AUC increase (metabolite of buspirone) [3]: 12-15%

SMILES: C[C@H]1O[C@@H](O[C@H]2[C@@H](O)C[C@H](O[C@H]3[C@@H](O)C[C@H](O[C@H]4CC[C@@]5(C)[C@H](CC[C@@H]6[C@@H]5C[C@@H](O)[C@]5(C)[C@@H](C7=CC(=O)OC7)CC[C@]65O)C4)O[C@@H]3C)O[C@@H]2C)C[C@H](O)[C@@H]1O [digoxin]
- effect of alisporivir on renal clearance [7]: did not affect
- increase in Cmax [7]: ~1.8 fold
- increase in the AUC [7]: ~2.6 fold

SMILES: C/C=C/C[C@@H](C)[C@@H](O)[C@H]1C(=O)N[C@@H](CC)C(=O)N(C)[C@H](C)C(=O)N(CC)[C@@H](C(C)C)C(=O)N[C@@H](C(C)C)C(=O)N(C)[C@@H](CC(C)C)C(=O)N[C@@H](C)C(=O)N[C@H](C)C(=O)N(C)[C@@H](CC(C)C)C(=O)N(C)[C@@H](CC(C)C)C(=O)N(C)[C@@H](C(C)C)C(=O)N1C [alisporivir]
- inhibition of CYP3A4 (CYP3A4): time-dependent inhibitor of CYP3A4
- inhibition of UGT2B7 (UGT2B7): does not inhibit
- T1/2 when administered with telaprevir [10]: shorter
- inhibition of NTCP (NTCP): inhibitor
- T1/2 when administered with boceprevir [11]: shorter
- inhibition of P-gp (P-gp): inhibitor
- inhibition of OATP1B3 (OATP1B3 [12]): inhibitor
- anti-HIV-1 potency relative to CsA (HIV-1): approximately 10 fold
- Ki (MRP2 [13]): 5900 nM
- IC50 (OATP1B3 [14]): 700 nM
- IC50 (OATP1B1 [15]): 700 nM
- inducing effects on CYP isozymes (CYP isozymes): no inducing effects
- inhibition of MRP2 (MRP2 [16]): inhibitor
- inhibition of BSEP (BSEP): inhibitor
- inhibition of UGT1A1 (UGT1A1): does not inhibit
- inhibition of OATP1B1 (OATP1B1 [17]): inhibitor

Next, values leading:

- Valsartan exposure increased [4]: ~6 fold
- increase in Cmax [5]: approximately 2.3 fold
- increase in the AUC [5]: ~6 fold
SMILES: CCCCC(=O)N(Cc1ccc(-c2ccccc2-c2nnn[nH]2)cc1)[C@H](C(=O)O)C(C)C [valsartan]

- increase in exposure (AUC) [6]: ~9 fold
- increase in exposure (Cmax) [6]: approximately 7 fold
SMILES: CC(C)c1c(C(=O)Nc2ccccc2O)c(-c2ccccc2)c(-c2ccc(F)cc2)n1CCC(O)CC(O)CC(=O)O (centres unmarked) [o-OH-atorvastatin]

- T1/2 when administered with alisporivir [8]: similar
SMILES: CN(C)CCC[C@@]1(c2ccc(F)cc2)OCc2cc(C#N)ccc21 [escitalopram]

- T1/2 when administered with alisporivir [9]: longer
SMILES: CC(C)n1c(/C=C/C(O)CC(O)CC(=O)O)c(-c2ccc(F)cc2)c2ccccc21 (centres unmarked) [fluvastatin]

- T1/2 when administered with alisporivir [18]: similar
- increase in the Cmax [18]: ~47%
SMILES: CC(C)(C)NC(=O)N[C@H](C(=O)N1C[C@H]2[C@@H]([C@H]1C(=O)NC(CC1CCC1)C(=O)C(N)=O)C2(C)C)C(C)(C)C (some centres unmarked) [boceprevir]
